Data as given in PMC11470957, “Principles of paralog-specific targeted protein degradation engaging the C-degron E3 KLHDC2” (Nature Communications, 2024).
Values joined by “and” are separate entries in the source; they are usually repeats but may differ in a detail not shown here. Equal values may be shown once. Read-outs that look alike come from different tables or passages of the source.

Columns and labels:
[1] = target: BRD4 (Homo sapiens, UniProt O60885); assay: Western blot of BRD4 levels after cellular dosing; settings: for BRD4 (DMSO = 100): Rep1, Rep2
[2] = test system: BRD proteins in U2OS KO/rescue lysate; assay: Degradation in non-denaturing lysates of U2OS KO/rescue cells; settings: non-denaturing U2OS KO/rescue lysate 4mg/ml, 10 µM, 30° C

COC(=O)CNC(=O)Cc1csc(-c2ccc3cccc(OCCN4CCN(C(=O)C[C@@H]5N=C(c6ccc(Cl)cc6)c6c(sc(C)c6C)-n6c(C)nnc65)CC4)c3c2)n1 [SJ46420]
BRD4 level, Western blot quantification (DMSO = 100) ([1]; Fig S6g, SKBR3 Time course, 5 uM, 2hr): 109.415 and 100.234
BRD4 level, Western blot quantification (DMSO = 100) ([1]; Fig S6g, SKBR3 Time course, 5 uM, 4hr): 59.7954 and 68.2545
BRD4 level, Western blot quantification (DMSO = 100) ([1]; Fig S6g, SKBR3 Time course, 5 uM, 8hr): 59.199 and 52.2362
BRD4 level, Western blot quantification (DMSO = 100) ([1]; Fig S6i, SKBR3, 5uM): 72.6081 and 84.277
BRD4 level, Western blot quantification (DMSO = 100) ([1]; Fig S6i, U2OS, 5uM): 157.053 and 196.781
BRD4 level, Western blot quantification (DMSO = 100) ([1]; Fig S6h, U2OS Time course, 5uM, 2hr): 126.968 and 100.342
BRD4 level, Western blot quantification (DMSO = 100) ([1]; Fig S6h, U2OS Time course, 5uM, 4hr): 91.1641 and 100.137
BRD4 level, Western blot quantification (DMSO = 100) ([1]; Fig S6h, U2OS Time course, 5uM, 8hr): 65.7267 and 72.5334
BRD4 level, Western blot quantification (DMSO = 100) ([1]; Fig S6h, U2OS Time course, 5uM, 24hr): 56.1641 and 64.2352
BRD4 level, Western blot quantification (DMSO = 100) ([1]; Fig S6d, U2OS KO/rescue Dose Response, 0.156 uM): 81.019 and 75.43
BRD4 level, Western blot quantification (DMSO = 100) ([1]; Fig S6d, U2OS KO/rescue Dose Response, 0.313 uM): 75.0042 and 85.343
BRD4 level, Western blot quantification (DMSO = 100) ([1]; Fig S6d, U2OS KO/rescue Dose Response, 0.625 uM): 69.2459 and 75.342
BRD4 level, Western blot quantification (DMSO = 100) ([1]; Fig S6d, U2OS KO/rescue Dose Response, 1.25 uM): 72.3683 and 63.23
BRD4 level, Western blot quantification (DMSO = 100) ([1]; Fig S6d, U2OS KO/rescue Dose Response, 2.5 uM): 72.6616 and 79.232
BRD4 level, Western blot quantification (DMSO = 100) ([1]; Fig S6d, U2OS KO/rescue Dose Response, 5 uM): 65.5064 and 72.323
BRD4 level relative to DMSO (100%) ([1]; MDA-MB-468, 2.5µM, 24 h, Fig S6b): 90 +/- 6.3%
BRD4 level relative to DMSO (100%) ([1]; MDA-MB-468, 5µM, 24 h, Fig S6b): 78 +/- 4.3%
BRD4 level relative to DMSO (100%) ([1]; MDA-MB-468, 10µM, 24 h, Fig S6b): 68 +/- 3.6%
BRD4 level relative to DMSO (100%) ([1]; PC3, 0.16µM, 24 h, Fig S6e): 78 +/- 4.1%
BRD4 level relative to DMSO (100%) ([1]; PC3, 0.31µM, 24 h, Fig S6e): 80 +/- 7.3%
BRD4 level relative to DMSO (100%) ([1]; PC3, 0.63µM, 24 h, Fig S6e): 72 +/- 4.3%
BRD4 level relative to DMSO (100%) ([1]; PC3, 1.3µM, 24 h, Fig S6e): 67 +/- 6.5%
BRD4 level relative to DMSO (100%) ([1]; PC3, 2.5µM, 24 h, Fig S6e): 75 +/- 4.7%
BRD4 level relative to DMSO (100%) ([1]; PC3, 5µM, 24 h, Fig S6e): 68 +/- 4.8%
BRD4 level relative to DMSO (100%) ([1]; PC3, 10µM, 24 h, Fig S6e): 44 +/- 5.7%
BRD4 (DMSO = 100) ([1]; PC3 cells, Log SJ46420 1.89279): 90.1763 and 93.433
BRD4 (DMSO = 100) ([1]; PC3 cells, Log SJ46420 4): 40.11 and 48.232
BRD4 level relative to DMSO (100%) ([1]; SKBR3, 1µM, 2hr, Fig S6g): 102 +/- 3.1%
BRD4 level relative to DMSO (100%) ([1]; SKBR3, 1µM, 4hr, Fig S6g): 78 +/- 4.7%
BRD4 level relative to DMSO (100%) ([1]; SKBR3, 1µM, 8hr, Fig S6g): 75 +/- 4.5%
BRD4 level relative to DMSO (100%) ([1]; SKBR3, 5µM, 2hr, Fig S6g): 104 +/- 6.7%
BRD4 level relative to DMSO (100%) ([1]; SKBR3, 5µM, 4hr, Fig S6g): 63 +/- 5.8%
BRD4 level relative to DMSO (100%) ([1]; SKBR3, 5µM, 4hr, Fig S6j): 78 +/- 8.2%
BRD4 level relative to DMSO (100%) ([1]; SKBR3, 5µM, 8hr, Fig S6g): 55 +/- 5.1%
BRD4 level relative to DMSO (100%) ([1]; U2OS DC2KO (KLHDC2 knockout), 5µM, 24 h, Fig 6b): 99 +/- 12%
BRD4 (DMSO = 100) ([1]; U2OS KO/Rescue cells, Log SJ46420 1.59176): 106.334 and 102.232
BRD4 level relative to DMSO (100%) ([1]; U2OS KO/Rescue, 0.16µM, 24 h, Fig S6d): 92 +/- 9.3%
BRD4 level relative to DMSO (100%) ([1]; U2OS KO/Rescue, 0.31µM, 24 h, Fig S6d): 83 +/- 16%
BRD4 level relative to DMSO (100%) ([1]; U2OS KO/Rescue, 0.63µM, 24 h, Fig S6d): 69 +/- 12%
BRD4 level relative to DMSO (100%) ([1]; U2OS KO/Rescue, 1µM, 24 h, Fig 6c): 90 +/- 4.1%
BRD4 level relative to DMSO (100%) ([1]; U2OS KO/Rescue, 1µM, 24 h, Fig 6d): 75 +/- 10%
BRD4 level relative to DMSO (100%) ([1]; U2OS KO/Rescue, 1.3µM, 24 h, Fig S6d): 46 +/- 15%
BRD4 level relative to DMSO (100%) ([1]; U2OS KO/Rescue, 2.5µM, 24 h, Fig S6d): 26 +/- 2.1%
BRD4 level relative to DMSO (100%) ([1]; U2OS KO/Rescue, 5µM, 24 h, Fig S6d): 3.4 +/- 0.69%
BRD4 Dmax ([1]; U2OS KO/Rescue, 24 h dose): ~ 100%
BRD4 level relative to DMSO (100%) ([1]; U2OS KO/Rescue, concentration not printed (line after 5µM), 24 h, Fig S6d): 0.51 +/- 0.21%
BRD4 level relative to DMSO (100%) ([1]; U2OS, 5µM, 4hr, Fig S6h): 96 +/- 7.2%
BRD4 level relative to DMSO (100%) ([1]; U2OS, 5µM, 8hr, Fig S6i): 176 +/- 28%
BRD4 level relative to DMSO (100%) ([1]; U2OS, 5µM, 8hr, Fig S6h): 69 +/- 4.4%
BRD4 level relative to DMSO (100%) ([1]; U2OS, 5µM, 24 h, Fig 6b): 74 +/- 4.1%
BRD4 level relative to DMSO (100%) ([1]; U2OS, 5µM, 24hr, Fig S6h): 60 +/- 5.6%
Dmax ([1]; U2OS, read-out: BRD4 Dmax, U2OS KO/Rescue, 24 h dose): 99.4%
Dmax ([1]; read-out: BRD4 Dmax, PC3, 24 h dose): 59.5%
degrader dependent decrease in BRD protein levels in lysate [2]: did not observe a degrader dependent decrease
